Laboratory results published in the supplement of paper PMC10627819.

Columns and labels:
B. subtilis 168 [1] = assay: fitness (endpoint OD595 vs no drug) (fraction); higher = more growth
Summary of the method: (§1)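 Fitness expresses the optical density reached at the stationary-phase transition as a fraction of the robust mean of no-drug control wells. It is capped at 1. Measurements were OD595 every 30 min for 14 h at 37 °C after inoculation of 384-well plates at OD595 0.01 (30 µl, or 55 µl for S. pneumoniae), minus the first reading.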

B. subtilis 168 [2] = assay: Bliss interaction score (quartile over a dose matrix) (fitness difference); higher = more antagonism (negative = synergy)
Summary of the method: (§2)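 Quartiles summarise the Bliss score over technical, biological and donor/recipient replicates, where the score is observed minus expected fitness under a product model. Expected fitness uses single-drug values inferred from combination data. Fitness is OD595 at entry into stationary phase over the plate's robust no-drug mean, capped at 1.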

S. aureus DSM 20231 = assay: as above
Summary of the method: as §2

S. aureus Newman = assay: as above
Summary of the method: as §2

S. pneumoniae D39V [3] = assay: as above
Summary of the method: as §2

S. pneumoniae D39V [4] = assay: fitness (endpoint OD595 vs no drug) (fraction); higher = more growth
Summary of the method: as §1
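For Bliss interaction score (quartile over a dose matrix) in this document: first quartile when negative (synergy) and third quartile when positive (antagonism).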

CO/N=C(\C(=O)N[C@@H]1C(=O)N2C(C(=O)O)=C(COC(N)=O)CS[C@H]12)c1ccco1 [Cefuroxime] + CCC[C@@H]1C[C@@H](C(=O)N[C@@H]([C@H]2O[C@H](SC)[C@H](O)[C@@H](O)[C@H]2O)[C@@H](C)O)N(C)C1 [Lincomycin]
fitness, B. subtilis 168 [1], one replicate
Settings | first compound 0.04875 µg/mL | first compound 0.0975 µg/mL | first compound 0.195 µg/mL | first compound 0.39 µg/mL | first compound 0.78 µg/mL | first compound 1.562 µg/mL | first compound 3.125 µg/mL | first compound 6.25 µg/mL
partner 0.1 µg/mL | 0.88 | 0.8 | – | 0.388 | 0.386 | 0.303 | 0.248 | 0.156
partner 0.2 µg/mL | 0.865 | 0.713 | – | 0.358 | 0.372 | 0.265 | 0.19 | 0.137
partner 0.4 µg/mL | – | – | – | 0.373 | 0.319 | 0.265 | 0.175 | 0.101
partner 0.8 µg/mL | 0.505 | 0.467 | 0.359 | – | – | – | – | –
partner 1.6 µg/mL | 0.498 | 0.428 | 0.323 | – | – | – | – | –

fitness, B. subtilis 168 [1]
Settings | first compound 0.04875 µg/mL | first compound 0.0975 µg/mL | first compound 0.195 µg/mL
partner 0.1 µg/mL | – | – | 0.554
partner 0.2 µg/mL | – | – | 0.521
partner 0.4 µg/mL | 0.682 | 0.644 | 0.396

Settings | Bliss interaction score
B. subtilis 168 [2] | 0.0554
S. aureus DSM 20231 | -0.223
S. aureus Newman | -0.0658
S. pneumoniae D39V [3] | 0.0595

Cc1ncc([N+](=O)[O-])n1CCO [Metronidazole] + CO[C@@H]1[C@@H](OC(N)=O)[C@@H](O)[C@H](Oc2ccc3c(O)c(NC(=O)c4ccc(O)c(CC=C(C)C)c4)c(=O)oc3c2C)OC1(C)C [Novobiocin]
fitness, B. subtilis 168 [1]
Settings | first compound 0.625 µg/mL | first compound 1.25 µg/mL | first compound 2.5 µg/mL
partner 0.0125 µg/mL | 0.969 | 0.954 | 0.968
partner 0.025 µg/mL | 0.998 | 0.977 | 0.986
partner 0.05 µg/mL | 0.969 | 0.977 | 0.98

fitness, B. subtilis 168 [1], one replicate
Settings | first compound 0.625 µg/mL | first compound 1.25 µg/mL | first compound 2.5 µg/mL
partner 0.125 µg/mL | ≥ 1 | 0.958 | 0.915
partner 0.25 µg/mL | 0.923 | 0.916 | 0.908
partner 0.5 µg/mL | 0.584 | 0.633 | 0.552

Settings | Bliss interaction score
B. subtilis 168 [2] | 0.072
S. aureus DSM 20231 | 0.0355
S. aureus Newman | 0.05
S. pneumoniae D39V [3] | 0.126

O=C(O)c1cn(C2CC2)c2cc(N3CCNCC3)c(F)cc2c1=O [Ciprofloxacin] + CO[C@H]1/C=C/O[C@@]2(C)Oc3c(C)c(O)c4c(O)c(c(/C=N/N5CCN(C)CC5)c(O)c4c3C2=O)NC(=O)/C(C)=C\C=C\[C@H](C)[C@H](O)[C@@H](C)[C@@H](O)[C@@H](C)[C@H](OC(C)=O)[C@@H]1C [Rifampicin]
fitness, S. pneumoniae D39V [4]
Settings | first compound 0.125 µg/mL | first compound 0.25 µg/mL | first compound 0.5 µg/mL
partner 0.025 µg/mL | 0.954 | 0.84 | 0.795
partner 0.05 µg/mL | – | – | 0.688

S. pneumoniae D39V [4], partner 0.2 µg/mL, one replicate
Settings | fitness
first compound 0.125 µg/mL | 0
first compound 0.25 µg/mL | 0
first compound 0.5 µg/mL | 0

Settings | Bliss interaction score
B. subtilis 168 [2] | 0.162
S. aureus DSM 20231 | -0.0712
S. aureus Newman | 0.0614
S. pneumoniae D39V [3] | 0.0532

O=C(O)c1cn(C2CC2)c2cc(N3CCNCC3)c(F)cc2c1=O [Ciprofloxacin] + CC[C@H]1OC(=O)[C@H](C)[C@@H](O[C@H]2C[C@@](C)(OC)[C@@H](O)[C@H](C)O2)[C@H](C)[C@@H](O[C@@H]2O[C@H](C)C[C@H](N(C)C)[C@H]2O)[C@](C)(OC)C[C@@H](C)C(=O)[C@H](C)[C@@H](O)[C@]1(C)O [Clarithromycin]
fitness, S. pneumoniae D39V [4], one replicate
Settings | partner 0.007812 µg/mL | partner 0.01562 µg/mL | partner 0.03125 µg/mL | partner 0.0625 µg/mL | partner 0.125 µg/mL | partner 0.25 µg/mL
first compound 0.125 µg/mL | 0.839 | 0.844 | 0.627 | – | – | –
first compound 0.25 µg/mL | 0.742 | 0.746 | 0.536 | 0.349 | 0.17 | 0.0141
first compound 0.5 µg/mL | 0.472 | 0.524 | 0.398 | – | – | –

fitness, S. pneumoniae D39V [4]
Settings | partner 0.0625 µg/mL | partner 0.07 µg/mL | partner 0.125 µg/mL | partner 0.14 µg/mL | partner 0.25 µg/mL | partner 0.28 µg/mL
first compound 0.125 µg/mL | 0.473 | 0.151 | 0.246 | 0.0833 | 0.0576 | 0.0594
first compound 0.25 µg/mL | – | 0.166 | – | 0.0864 | – | 0.0284
first compound 0.5 µg/mL | 0.374 | 0.127 | 0.191 | 0.0639 | 0.0761 | 0.0531

Settings | Bliss interaction score
B. subtilis 168 [2] | 0.183
S. aureus DSM 20231 | 0.0952
S. aureus Newman | 0.0708
S. pneumoniae D39V [3] | -0.0773

COc1cccc2c1C(=O)c1c(O)c3c(c(O)c1C2=O)C[C@@](O)(C(=O)CO)C[C@@H]3O[C@H]1C[C@H](N)[C@H](O)[C@H](C)O1 [Doxorubicin] + Clc1ccc(COC(Cn2ccnc2)c2ccc(Cl)cc2Cl)c(Cl)c1 [Miconazole]
fitness, S. pneumoniae D39V [4]
Settings | partner 1.073 µg/mL | partner 1.25 µg/mL | partner 2.145 µg/mL | partner 2.5 µg/mL | partner 4.29 µg/mL | partner 5 µg/mL
first compound 0.25 µg/mL | 0.953 | 0.921 | 0.921 | 0.949 | 0.646 | 0.947
first compound 0.5 µg/mL | 0.967 | 0.967 | 0.978 | 0.966 | 0.848 | 0.983
first compound 1 µg/mL | 0.961 | 0.845 | 0.914 | 0.901 | 0.791 | 0.921

Settings | Bliss interaction score
B. subtilis 168 [2] | 0.0755
S. aureus DSM 20231 | -0.0766
S. aureus Newman | -0.074
S. pneumoniae D39V [3] | 0.0804

CO/N=C(\C(=O)N[C@@H]1C(=O)N2C(C(=O)O)=C(COC(C)=O)CS[C@H]12)c1csc(N)n1 [Cefotaxime] + CO[C@H]1/C=C/O[C@@]2(C)Oc3c(C)c(O)c4c(O)c(c(/C=N/N5CCN(C)CC5)c(O)c4c3C2=O)NC(=O)/C(C)=C\C=C\[C@H](C)[C@H](O)[C@@H](C)[C@@H](O)[C@@H](C)[C@H](OC(C)=O)[C@@H]1C [Rifampicin]
fitness, S. pneumoniae D39V [4]
Settings | first compound 0.0018 µg/mL | first compound 0.0035 µg/mL | first compound 0.007 µg/mL
partner 0.025 µg/mL | 0.96 | 0.964 | 0.798
partner 0.1 µg/mL | – | – | 0.159

S. pneumoniae D39V [4], partner 0.2 µg/mL, one replicate
Settings | fitness
first compound 0.0018 µg/mL | 0
first compound 0.0035 µg/mL | 0
first compound 0.007 µg/mL | 0

Settings | Bliss interaction score
B. subtilis 168 [2] | 0.0961
S. aureus DSM 20231 | 0.0866
S. aureus Newman | 0.0597
S. pneumoniae D39V [3] | -0.0838
